Values after ≈ are worked out from the molar mass of the structure shown.
Key:
Rattus norvegicus = conditions: inhalation
Colinus virginianus = conditions: acute, oral, mortality; for LC50: diet
Oncorhynchus mykiss = conditions: acute; duration: 96 hours; mortality
Anas platyrhynchos = conditions: short-term; oral; feed; mortality
Coturnix japonica = conditions: reproduction developmental; reproduction
[1] = chronic, duration: 2 years, no effects
[2] = reproduction developmental, mortality
[3] = subchronic, duration: 90 days, no effects

Row | SMILES | NOAEL (Rattus norvegicus; [1]) [mg/kg-day] | NOAEL (Rattus norvegicus; [2]) [mg/kg-day] | NOAEL (Rattus norvegicus; [3]) [mg/kg-day] | LC50 (Colinus virginianus) [mg/kg] | LD50 (Colinus virginianus) [mg/kg-day] | LC50 (Oncorhynchus mykiss) [ng/mL] | LC50 (Anas platyrhynchos) [mg/kg] | NOEC (Coturnix japonica) [mg/kg-day]
1 | P [Phosphine] | 1.1 | 1.9 | 1.1 | 124 | ≤ 9.2 | 4.68 (≈ 0.138 µM) | 762 | 
2 | [Ca+2].[Ca+2].[Ca+2].[P-3].[P-3] [Tricalcium diphosphide] | 1.1 | 1.9 | 1.1 | 330 | < 24.7 |  | 2040 | 
3 | [PH]=[Zn].[PH]=[Zn].[Zn] [Zinc phosphide (Zn3P2)] |  |  |  | 469 | < 35 |  | 2880 | < 3.5

Reference: EPA's ToxValDB 9.5 (doi:10.2903/j.efsa.2008.183r)
